Patent US10703733B2, “MCL-1 inhibitors” (Gilead Sciences, Inc., priority 2018, dated 2020)

What was measured:
SKBR3 cells = assay: SKBR3 Cell Viability Assay (CellTiter Glo); assay type: cell-based; details: 72 hours, CellTiter Glo luminescence, read-out: MCL-1 CV SKBR3 EC50
Description: SKBR3 Cell Viability Assay Materials
SKBR3 Cells (ATCC HTB-30) were obtained from ATCC (Manassas, Va.) and cultured in McCoy 5A's medium (ATCC 30-2007)+10% fetal bovine serum (SH30071.03, HyClone, Pittsburgh, Pa.) plus 1× Penicillin-Streptomycin L-glutamine (Corning 30-009-C1, Corning, N.Y.)).
The cell viability assay was conducted in a 384-well tissue culture plate (Grenier 781086, Monroe, N.C.) in a total volume of 70 μL. Test compounds were prepared in 1,000×, serially diluted, and pre-spotted into 384-well tissue culture plate by Echo 555 Liquid Handler (Labcyte Inc., San Jose, Calif.). Seventy μl of 6,000 SKBR3 cells were dispensed into each well of the plate and incubated at 37° C. with 5% CO2 for 72 hours. At the end of incubation, 2× CellTiter Glo (CTG) reagents (1 part buffer with 2 parts substrate) (Promega, Madison, Wis.) were prepared, and the plate and the reagent were equilibrated to room temperature for 30 minutes. CTG reagent was added to each plate by Biomek FX at 20 μL/well with 5 times pipetting and mixing to induce cell lysis. Luminescence was read by Envision multimode reader (PerkinElmer). […] Percent inhibition was calculated as followed: % Inhibition=100%*(Well−Neg)/(Pos−Neg) Neg, negative control, DMSO Pos, positive control, 10 μM Puromycin

[1] = biological target: MCL-1/Bim interaction (recombinant human MCL-1 protein, residues 171-327; biotinylated human Bim peptide, residues 51-76) (Homo sapiens (Human), UniProt Q07820); assay: MCL-1/Bim Binding AlphaLISA Assay; details: 0.0625 nM 6xHis-Mcl-1 (171-327), 0.0625 nM biotinylated-Bim peptide
Description: MCL-1/Bim Binding AlphaLISA Assay.
Inhibition of the MCL-1 and Bim interaction was measured in the following AlphaLISA assay.
Recombinant human MCL-1 protein (C-terminal 6×His Tagged Mcl-1 containing residues 171-327) was generated at Gilead Sciences, Inc. (Foster City, Calif.). A biotinylated peptide derived from human Bim (residues 51-76) was purchased from CPC Scientific (Sunnyvale, Calif.). (CPC 834113). AlphaLISA anti-6His-acceptor beads (AL128R), AlphaScreen Streptavidin donor beads (6760002B), and Proxiplate-384 Plus (6008289) were purchased from PerkinElmer.
The AlphaLISA assay was performed in a 384-well Proxiplate in a total volume of […]. The reaction mixture contained 0.0625 nM 6×His-Mcl-1 (171-327), 0.0625 nM biotinylated-Bim peptide, 10 μg/mL AlphaLISA anti-6×His-AlphaLISA acceptor beads, […] AlphaScreen streptavidin donor beads, and serially diluted test compounds in the binding buffer (20 mM Hepes, pH 7.5 (Teknova H1035); 150 mM NaCl (Promega V4221); 0.002% Brij 35 (Thermo Scientific 20150); 1 mM Dithiothreitol (DTT) Solution (Affymetrix 70726); 0.01% BSA (BioLabs B9000S)). 1,000×test compounds were pre-spotted onto 384-well Proxiplate (Labcyte Echo) by Echo 555 Liquid Handler (Labcyte Inc., San Jose, Calif.) followed by incubation of 5 μl Mcl-1(171-327) for 1 hour. Then 5 μL Bim (51-76) was added and incubated for 2 hours. Five μL AlphaLISA anti-6His-AlphaLISA acceptor beads were then added for 1 hour followed by addition of 5 μL AlphaScreen streptavidin donor beads for 1 hour. The reaction plates were then read on an Envision multimode reader (PerkinElmer) using AlphaScreen settings. […] Percent inhibition was calculated as shown below: % Inhibition=100%*(Well−Neg)/(Pos−Neg) Neg: negative control, DMSO Pos: positive control, no Mcl-1 protein, no biotinylated-Bim peptide

MCL-1/Bim interaction (recombinant human MCL-1 protein, residues 171-327; biotinylated human Bim peptide, residues 51-76), sequence (Q07820 171-327): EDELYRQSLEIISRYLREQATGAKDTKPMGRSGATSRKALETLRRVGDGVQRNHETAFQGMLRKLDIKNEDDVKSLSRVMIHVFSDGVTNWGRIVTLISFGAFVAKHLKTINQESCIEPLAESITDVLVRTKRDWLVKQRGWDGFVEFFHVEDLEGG

EC50 (SKBR3 cells) [nM]	IC50 [1] [nM]	Compound
3270	–	CCNC(=O)N[S@@]1(=O)=NC(=O)c2ccc3c(c2)N(C[C@@H]2CC[C@H]2[C@@H](OC)CCCCC1)C[C@@]1(CCCc2cc(Cl)ccc21)CO3 [Example 13]
–	0.064	COC[C@H]1C[C@H](NC(=O)N[S@@]2(=O)=NC(=O)c3ccc4c(c3)N(C[C@@H]3CC[C@H]3[C@@H](OC)/C=C/C[C@H](C)C2)C[C@@]2(CCCc3cc(Cl)ccc32)CO4)C1 [Example 200]
–	0.196	COCCOc1nn(C)cc1C(=O)N[S@@]1(=O)=NC(=O)c2ccc3c(c2)N(C[C@@H]2CC[C@H]2[C@@H](OC)/C=C/C[C@H](C)C1)C[C@@]1(CCCc2cc(Cl)ccc21)CO3 [Example 216]
–	10.6	CO[C@H]1/C=C/C[C@H](C)C[S@](N)(=O)=NC(=O)c2ccc3c(c2)N(C[C@@H]2CC[C@H]21)C[C@@]1(CCCc2cc(Cl)ccc21)CO3 (single isomer, unassigned) [Example 109]
–	0.098	C[C@@H]1[C@@H](C)C/C=C/[C@H](O)[C@@H]2CC[C@H]2CN2C[C@@]3(CCCc4cc(Cl)ccc43)COc3ccc(cc32)C(=O)N=[S@]1(=O)NC(=O)c1cc2n(c1)CC(C)(CN1CCOCC1)OC2 (stereo partly drawn) [Example 259]
–	0.113	CO[C@H]1/C=C/C[C@H](C)[C@@H](C)[S@@](=O)(NC(=O)COC2COC2)=NC(=O)c2ccc3c(c2)N(C[C@@H]2CC[C@H]21)C[C@@]1(CCCc2cc(Cl)ccc21)CO3 [Example 407]
–	0.041	COc1nn(C)cc1C(=O)N[S@@]1(=O)=NC(=O)c2ccc3c(c2)N(C[C@@H]2CC[C@H]2[C@@H](OC)/C=C/[C@H](O)[C@H](C)C1)C[C@@]1(CCCc2cc(Cl)ccc21)CO3 [Example 279]
–	0.1	CO[C@H]1/C=C/C[C@H](C)C[S@@](=O)(NC(=O)COC2CCOCC2)=NC(=O)c2ccc3c(c2)N(C[C@@H]2CC[C@H]21)C[C@@]1(CCCc2cc(Cl)ccc21)CO3 [Example 106]
–	0.046	CO[C@H]1/C=C/CCC[S@@](=O)(NC(=O)c2cnn(C)c2)=NC(=O)c2ccc3c(c2)N(C[C@@H]2CC[C@H]21)C[C@@]1(CCCc2cc(Cl)ccc21)CO3 [Example 113]
–	1.06	COc1nn(C)cc1C(=O)NS1(=O)=NC(=O)c2ccc3c(c2)N(C[C@@H]2CC[C@H]2[C@@H](OC)/C=C/C[C@H](C)C1)C[C@@]1(CCCc2cc(Cl)ccc21)CO3 (single isomer, unassigned) [Example 388]
–	2.63	CO[C@H]1/C=C/C[C@H](C)[C@@H](C)[S@](N)(=O)=NC(=O)c2ccc3c(c2)N(C[C@@H]2CC[C@H]21)C[C@@]1(CCCc2cc(Cl)ccc21)CO3 (single isomer, unassigned) [Example 110]
–	0.061	C[C@@H]1[C@@H](C)C/C=C/[C@H](O)[C@@H]2CC[C@H]2CN2C[C@@]3(CCCc4cc(Cl)ccc43)COc3ccc(cc32)C(=O)N=[S@]1(=O)NC(=O)N[C@@H]1C[C@H]1C(F)F [Example 260]
–	0.089	COc1nnc(C)cc1C(=O)N[S@@]1(=O)=NC(=O)c2ccc3c(c2)N(C[C@@H]2CC[C@H]2[C@@H](OC)/C=C/C[C@H](C)C1)C[C@@]1(CCCc2cc(Cl)ccc21)CO3 [Example 460]
–	0.263	C[C@@H]1[C@@H](C)C/C=C/[C@H](O)[C@@H]2CC[C@H]2CN2C[C@@]3(CCCc4cc(Cl)ccc43)COc3ccc(cc32)C(=O)N=[S@]1(=O)NC(=O)c1cc2n(c1)CC(C)(C)OC2 [Example 264]
–	0.047	CO[C@H]1/C=C/C[C@H](C)C[S@@](=O)(NC(=O)N[C@H]2[C@@H]3COC[C@@H]32)=NC(=O)c2ccc3c(c2)N(C[C@@H]2CC[C@H]21)C[C@@]1(CCCc2cc(Cl)ccc21)CO3 [Example 206]
–	0.203	COC[C@H]1Cn2cc(C(=O)N[S@@]3(=O)=NC(=O)c4ccc5c(c4)N(C[C@@H]4CC[C@H]4[C@@H](OC)/C=C/C[C@H](C)[C@H]3C)C[C@@]3(CCCc4cc(Cl)ccc43)CO5)cc2CO1 [Example 215]
–	0.7	COCC(=O)NS1(=O)=NC(=O)c2ccc3c(c2)N(C[C@@H]2CC[C@H]2[C@@H](OC)/C=C/CCC1)C[C@@]1(CCCc2cc(Cl)ccc21)CO3 (single isomer, unassigned) [Example 8]

Further lines, the compound ahead of its results:

Compound	EC50 (SKBR3 cells) [nM]	IC50 [1] [nM]
CO[C@H]1/C=C/CCC[S@@](N)(=O)=NC(=O)c2ccc3c(c2)N(C[C@@H]2CC[C@H]21)C[C@@]1(CCCc2cc(Cl)ccc21)CO3 [Example 5]	10000	–
CCOC(=O)N[S@]1(=O)=NC(=O)c2ccc3c(c2)N(C[C@@H]2CC[C@H]2[C@@H](OC)/C=C/CCC1)C[C@@]1(CCCc2cc(Cl)ccc21)CO3 [Example 9]	7780	–
COC1CCCn2cc(C(=O)N[S@@]3(=O)=NC(=O)c4ccc5c(c4)N(C[C@@H]4CC[C@H]4[C@@H](OC)/C=C/C[C@H](C)C3)C[C@@]3(CCCc4cc(Cl)ccc43)CO5)cc2C1 (stereo partly drawn) [Example 190]	–	0.055
C[C@@H]1[C@@H](C)C/C=C/[C@H](O)[C@@H]2CC[C@H]2CN2C[C@@]3(CCCc4cc(Cl)ccc43)COc3ccc(cc32)C(=O)N=[S@]1(=O)NC(=O)c1cc2n(c1)CC1(COC1)OC2 [Example 239]	–	0.042
CO[C@H]1/C=C/C[C@H](C)C[S@@](=O)(NC(=O)N[C@H]2C[C@@](C)(OC)C2)=NC(=O)c2ccc3c(c2)N(C[C@@H]2CC[C@H]21)C[C@@]1(CCCc2cc(Cl)ccc21)CO3 [Example 193]	–	0.046
CO[C@H]1/C=C/C[C@H](C)C[S@@](=O)(NC(=O)c2cc(CN(C)C3CCOCC3)n(C)c2)=NC(=O)c2ccc3c(c2)N(C[C@@H]2CC[C@H]21)C[C@@]1(CCCc2cc(Cl)ccc21)CO3 [Example 241]	–	0.087
COCCO[C@H]1/C=C/[C@H](OC)[C@@H]2CC[C@H]2CN2C[C@@]3(CCCc4cc(Cl)ccc43)COc3ccc(cc32)C(=O)N=[S@](=O)(NC(=O)c2cn(C)nc2OC)C[C@H]1C [Example 291]	–	0.039
COCC1(C)Cn2cc(C(=O)N[S@@]3(=O)=NC(=O)c4ccc5c(c4)N(C[C@@H]4CC[C@H]4[C@@H](O)/C=C/C[C@H](C)[C@H]3C)C[C@@]3(CCCc4cc(Cl)ccc43)CO5)cc2CO1 (stereo partly drawn) [Example 255]	–	0.096
CO[C@H]1/C=C/C[C@H](C)C[S@@](=O)(NC(=O)N[C@H]2C[C@H]2F)=NC(=O)c2ccc3c(c2)N(C[C@@H]2CC[C@H]21)C[C@@]1(CCCc2cc(Cl)ccc21)CO3 [Example 115]	–	0.068
CO[C@H]1/C=C/C[C@H](C)C[S@@](=O)(NC(=O)NCC2CC2)=NC(=O)c2ccc3c(c2)N(C[C@@H]2CC[C@H]21)C[C@@]1(CCCc2cc(Cl)ccc21)CN3 [Example 107]	–	0.1
CO[C@H]1/C=C/C[C@H](C)C[S@@](=O)(NC(=O)c2cnn(C3CC3)c2)=NC(=O)c2ccc3c(c2)N(C[C@@H]2CC[C@H]21)C[C@@]1(CCCc2cc(Cl)ccc21)CO3 [Example 151]	–	0.036
CCOc1nn(C)cc1C(=O)N[S@@]1(=O)=NC(=O)c2ccc3c(c2)N(C[C@@H]2CC[C@H]2[C@@H](OC)/C=C/C[C@H](C)C1)C[C@@]1(CCCc2cc(Cl)ccc21)CO3 [Example 194]	–	0.03
CCn1cc(C(=O)N[S@@]2(=O)=NC(=O)c3ccc4c(c3)N(C[C@@H]3CC[C@H]3[C@@H](OC)/C=C/CCC2)C[C@@]2(CCCc3cc(Cl)ccc32)CO4)cn1 [Example 104]	–	0.1
CO[C@H]1/C=C/C[C@H](C)C[S@@](=O)(NC(=O)N2CC(Oc3ccccn3)C2)=NC(=O)c2ccc3c(c2)N(C[C@@H]2CC[C@H]21)C[C@@]1(CCCc2cc(Cl)ccc21)CO3 [Example 463]	–	0.219
COc1nn(C)cc1C(=O)N[S@@]1(=O)=NC(=O)c2ccc3c(c2)N(C[C@@H]2CC[C@H]2[C@@H](OC)/C=C/C[C@H](C)C1)C[C@@]1(CCCc2cc(Cl)ccc21)CO3 [Example 154]	–	0.05
CO[C@H]1/C=C/C[C@H](C)[C@@H](C)[S@@](=O)(NC(=O)COC2CCOCC2)=NC(=O)c2ccc3c(c2)N(C[C@@H]2CC[C@H]21)C[C@@]1(CCCc2cc(Cl)ccc21)CO3 [Example 108]	–	0.1
